According to patent EP2943187B1, “USE OF GLYCYL GLUTAMINE AGAINST DEPRESSION” (Uludag Universitesi Teknoloji Transfer Ofisi Ticaret ve …, priority 2013, dated 2014):
Peptide text beside a SMILES is read from it.

Key:
Storage stability = format: physicochemical
Description: After, it is diluted by saline; it can be stored in a refrigerator at +4°C between 24-48 hours. It can be stored in room temperature for 10-12 hours.

rodents = assay: Forced Swimming Test; format: in vivo, rats; conditions: intracerebroventricular, 100 nmol/10 µl, n=12
From the text: It has been proven as a result of the tests performed on animals that Glycyl-glutamine is therapeutic on depression and anxiety disorders. These aforementioned studies have been performed by means of "the Forced Swimming Test" method, which is the most applied animal model, used in antidepressant treatment surveys. The forced swimming test had been developed by Porsolt et al., (1978) and it is the most applied animal model in depression surveys especially the antidepressant treatment surveys. […] After the same animal is placed in the same tank twenty-four hours after the first time, it is observed that the time passes until inactivity reduces. Inactivity is expressed as losing behaviors of trying to escape in other words "behavioral helplessness". The forced swimming test is a similar response to learned helplessness. The efforts spent for an escape comes to an end for the animal, which understands it is exposed to a stress it will not be able to escape. Thus, it can be understood by that test model whether the antidepressant medications, which are administered before the second administration, show antidepressant effects or not. In practice, the post-treatment behaviors of the animal change for reducing behavioral helplessness. The time passed until inactivity is extended by means of acute or short-term antidepressant treatments and total time of inactivity is decreased. […] Because, it is an easy to apply practice, this model is used extensively (Cryan et al., 2002).
In Figure 1, the effect of intracerebroventricular Gly-Gln injection on the first term of inactivity. When, Gly-Gln has been administered centrally, it has extended the time passed until first inactivity compared to the control animals. While, the time passed until first inactivity of the rodents which have been centrally administered saline (10 µl) has been 14,9 ± 2,8 seconds (n=14), the time passed until first inactivity of the rodent which have been applied Gly-Gln (100 nmol/10 µl) by that same way has been increased to 28,1 ± 6,1 seconds (n=12), (p<0,05).
In Figure 2, the effect of intracerebroventricular Gly-Gln injection on the total term of inactivity. When, Gly-Gln has been administered centrally, it has reduced the total time time of inactivity compared to the control animals. While, the total inactivity time of the rodents which have been centrally administered saline (10 µl) has been 229.4 ± 8.9 seconds (n=14), the time passed until first inactivity of the rodent which have been applied Gly-Gln (100 nmol/10 µl) by the same way has been increased to 172.5 ± 12.8 seconds (n=12), (p<0,001).
In Figure 3, the effect of intracerebroventricular Gly-Gln injection on the escalation and swimming times. […]

GABA levels in the brain = GABA levels in the brain after administration (unpublished data); format: in vivo; conditions: Gly-Gln administration; unpublished data from applicant's laboratory
From the text: This innovation is related with the use of glycyl-glutamine in the treatment and/or prophylaxis of depression disorder and/or anxiety, which meets all above-mentioned requirements, eliminates all disadvantages and provides some advantages. The purpose of the current invention is to use Glycyl-Glutamine (Gly-Gln) in the treatment and/or prophylaxis of depression and/or anxiety via its effects in the brain other than its metabolic products' (glycine and glutamine) separate effects. […] Glutamine exerts antidepressant effects by increasing gamma-aminobutyric acid (GABA) in the brain however Gly-Gln generates antidepressant effects by increasing serotonin levels in the brain.

[1] = tested on: serotonin output at the nucleus accumbency section of the brain; assay: Brain micro-dialysis, serotonin output; format: in vivo, rats; conditions: single intracerebroventricular 100 nmol dose, 2 hours of monitoring, versus saline; p<0.001
Description: The source of the antidepressant effects of Gly-Gln, which is mentioned in the figure descriptions above, have been analyzed and shown in Figures 4 and 5. In Figures 4 and 5; the effect of Gly-Gln on the serotonin output at the nucleus accumbency section of the brain upon intracerebroventricular Gly-Gln injection can be seen. […] An increase in serotonin outputs can be observed in all time intervals throughout 2 hours of monitoring period following the Gly-Gln injection; however, no serotonin output could be observed from the rodents in the control group who had been administered saline injections by the same way. Serotonin, which is structurally a monoamine neurotransmitter, is a hormone, which makes people feel happy, energetic and lively. When, the subject matter hormone serotonin is deficient in people, they feel depressive, tired and boring. […] Furthermore, the word "Saline" indicated in Figure 4 and 5 means salty water. It is used for comparing with the tested medication by administering on the control group.

NCC(=O)N[C@@H](CCC(N)=O)C(=O)O [Gly-Gln, glycyl-glutamine] (H-Gly-Gln-OH)
storage time, diluted by saline (Storage stability; refrigerator at +4°C): 24 to 48 h | storage time, non-diluted form (Storage stability; refrigerator at -20°C): very long period of time | storage time, diluted by saline (Storage stability; room temperature): 10 to 12 h | time passed until first inactivity (rodents; saline control 14,9 ± 2,8 seconds (n=14), p<0,05): 28,1 ± 6,1 seconds | swimming time (rodents; saline control 26,7 ± 2,9 seconds (n=14), p>0.05): 36,8 ± 4,3 seconds | escalation time (rodents; saline control 43,9 ± 7,0 seconds (n=14)): 90,8 ± 11,4 seconds | total inactivity time (rodents; saline control 229.4 ± 8.9 seconds (n=14), p<0,001): 172.5 ± 12.8 s | GABA levels in the brain (GABA levels in the brain): decrease | serotonin output at the nucleus accumbency section of the brain [1]: extremely increased
